Data reported in US10399968B2, “Hydroxyalkyl thiadiazole derivatives” (Daiichi Sankyo Company, Limited, priority 2015, dated 2019).
In brackets after ≈: the same amount, converted by molar mass. Like-named read-outs stand apart in the source and are kept apart here.

Tests used:
S. aureus ATCC 29213 = assay: Susceptibility of bacteria, broth microdilution MIC; type: cell-based; conditions: Staphylococcus aureus, ATCC29213
Experimental: The antibacterial activity of the compounds of the present invention was tested by the broth microdilution method. The assay was carried out according to the CLSI guidelines for managing the procedures of susceptibility tests: “M7-A7 Methods for Dilution Antimicrobial Susceptibility Tests for Bacteria That Grow Aerobically; Approved Standard-Seventh Edition (2006)”. Test strains were grown on appropriate agar plates overnight. A broth containing the test compound diluted serially 2-fold and diluents were dispensed at 100 μL to each well of a 96-well microplate. As a growth control, a well with a broth not containing the test compound was also prepared. Colonies grown on the plates were suspended in saline, adjusted to 0.5 McFarland (OD625=0.08 to 0.10) using a colorimeter, and then diluted 10-fold with saline. The bacterial suspension was inoculated at 4 μL into each well of the microplate using a bacterial suspension inoculation apparatus. The inoculated microplate was incubated at 35° C. overnight (about 20 hours). The growth condition was observed by the naked eye, and the minimum concentration to inhibit bacterial proliferation was defined as a minimum inhibitory concentration (MIC). The MICs of compounds disclosed herein for E. faecium, Streptococcus pneumoniae and Haemophilus influenzae are shown in Table 2, while for S. aureus in Table 3.

P. acnes ATCC 6921 = assay: Susceptibility of P. acnes, agar dilution MIC; type: cell-based; conditions: Cutibacterium acnes, ATCC6921, anaerobic
Experimental: (§1) The antibacterial activity of the compounds of the present invention against P. acnes clinical isolates was tested by the agar dilution method. The assay was carried out according to the CLSI guidelines document (Clinical and Laboratory Standards Institute, 2012 & 2016). The test strains were spread on supplemented Brucella agar (SBA) plates and grown for 42 to 48 hours at 36° C. under anaerobic condition. The test compound dilutions were prepared with Brucella broth and SBA plates containing dilution of test compound were prepared. As an anaerobic growth control and to check the aerobic contamination, plates not containing the test compound were also prepared. Colonies grown on plates were suspended with Brucella broth to adjust the turbidity to 0.5 McFarland using a densitometer. Suspension (1-2 μL) of the test strains was inoculated onto each agar surface by using a bacterial suspension inoculation apparatus (multipoint inoculator). After anaerobic incubation for 42 to 48 hours at 36° C., absence and presence of growth of each strain on growth control plates and test compounds plate were examined with unaided eye. The MIC was determined at which a marked reduction occurs in the appearance of growth on the test plate as compared to that of growth on the anaerobic control plates.

P. acnes IHMA 103740 = assay: Susceptibility of P. acnes, agar dilution MIC; type: cell-based; conditions: Cutibacterium acnes, IHMA103740, anaerobic
Experimental: as §1

P. acnes IHMA 775486 = assay: Susceptibility of P. acnes, agar dilution MIC; type: cell-based; conditions: Cutibacterium acnes, IHMA775486, anaerobic
Experimental: as §1

P. acnes ATCC 6523 = assay: Susceptibility of P. acnes, agar dilution MIC; type: cell-based; conditions: Cutibacterium acnes, ATCC6523, anaerobic
Experimental: as §1

[1] = system: Clostridium difficile ATCC 43255; assay: Susceptibility of Clostridium difficile, agar dilution MIC; type: cell-based; conditions: Clostridioides difficile, ATCC43255, anaerobic
Experimental: The antibacterial activity of the compounds of the present invention against Clostridium difficile clinical isolates was tested by the agar dilution method. The assay was carried out according to the CLSI guidelines for managing the procedures of susceptibility tests “M11-A8, Methods for Antimicrobial Susceptibility Testing of Anaerobic Bacteria; Approved Standard-Eighth Edition. CLSI document (2012)”.
The test strains were spread on supplemented Brucella agar (SBA) plates and grown at 36° C. under anaerobic condition for 42 to 48 hours. The test compound dilutions were prepared with Brucella broth and SBA plates containing dilution of test compound were prepared. As an anaerobic growth control, plates not containing the test compound were also prepared. Colonies grown on plates were suspended with Brucella broth to adjust the turbidity to 0.5 McFarland using a densitometer. Suspension (1-2 μL) of the test strains was inoculated onto each agar surface by using a bacterial suspension inoculation apparatus. After anaerobic incubation at 36° C. for 42 to 48 hours, absence and presence of growth of each strain were examined with unaided eye. The MIC was determined at which a marked reduction occurs in the appearance of growth on the test plate as compared to that of growth on the anaerobic control plates.

[2] = system: Streptococcus pneumoniae ATCC 49619; assay: Susceptibility of bacteria, broth microdilution MIC; type: cell-based; conditions: ATCC49619
Experimental: (§2) The antibacterial activity of the compounds of the present invention was tested by the broth microdilution method. The assay was carried out according to the CLSI guidelines for managing the procedures of susceptibility tests: “M7-A7 Methods for Dilution Antimicrobial Susceptibility Tests for Bacteria That Grow Aerobically; Approved Standard-Seventh Edition (2006)”. Test strains were grown on appropriate agar plates overnight. A broth containing the test compound diluted serially 2-fold and diluents were dispensed at 100 μL to each well of a 96-well microplate. As a growth control, a well with a broth not containing the test compound was also prepared. Colonies grown on the plates were suspended in saline, adjusted to 0.5 McFarland (OD625=0.08 to 0.10) using a colorimeter, and then diluted 10-fold with saline. The bacterial suspension was inoculated at 4 μL into each well of the microplate using a bacterial suspension inoculation apparatus. The inoculated microplate was incubated at 35° C. overnight (about 20 hours). The growth condition was observed by the naked eye, and the minimum concentration to inhibit bacterial proliferation was defined as a minimum inhibitory concentration (MIC).

E. faecium ATCC 29212 = assay: as above; type: cell-based; conditions: Enterococcus faecium, ATCC29212
Experimental: as §2

[3] = system: Haemophilus influenzae ATCC 49247; assay: as above; type: cell-based; conditions: ATCC49247
Experimental: as §2

[4] = system: Clostridium difficile 2009155, a NAP1/027 strain; assay: Hamster CDI model; type: in vivo; conditions: 0.3 mg/kg/day by oral route, 5 days
Experimental: The in vivo efficacy of test compounds were evaluated in a hamster CDI model caused by Clostridium difficile 2009155, a NAP1/027 strain. Syrine hamsters (6-8-weeks old) were primed with a single subcutaneous injection of clindamycin (30 mg/kg) 1-5 days prior to infection. Hamsters were infected by oral gavage with 1 ml of spore suspension ([…]) prepared in PBS. The drug was administered to the hamsters 6 hours post infection by oral or subcutaneous route at an interval of 24 hours for 5 days. The death and survival of the non-treated group and the drug-administered group were recorded once daily for 35 days.

[5] = molecular target: Clostridium difficile DNA gyrase (Clostridioides difficile, UniProt Q18C89); assay: DNA supercoiling inhibition assay; type: biochemical; conditions: supercoiling of relaxed pBR322 DNA, 60 minutes at 37° C.
Sequence of Clostridium difficile DNA gyrase (Q18C90 entry or part of it): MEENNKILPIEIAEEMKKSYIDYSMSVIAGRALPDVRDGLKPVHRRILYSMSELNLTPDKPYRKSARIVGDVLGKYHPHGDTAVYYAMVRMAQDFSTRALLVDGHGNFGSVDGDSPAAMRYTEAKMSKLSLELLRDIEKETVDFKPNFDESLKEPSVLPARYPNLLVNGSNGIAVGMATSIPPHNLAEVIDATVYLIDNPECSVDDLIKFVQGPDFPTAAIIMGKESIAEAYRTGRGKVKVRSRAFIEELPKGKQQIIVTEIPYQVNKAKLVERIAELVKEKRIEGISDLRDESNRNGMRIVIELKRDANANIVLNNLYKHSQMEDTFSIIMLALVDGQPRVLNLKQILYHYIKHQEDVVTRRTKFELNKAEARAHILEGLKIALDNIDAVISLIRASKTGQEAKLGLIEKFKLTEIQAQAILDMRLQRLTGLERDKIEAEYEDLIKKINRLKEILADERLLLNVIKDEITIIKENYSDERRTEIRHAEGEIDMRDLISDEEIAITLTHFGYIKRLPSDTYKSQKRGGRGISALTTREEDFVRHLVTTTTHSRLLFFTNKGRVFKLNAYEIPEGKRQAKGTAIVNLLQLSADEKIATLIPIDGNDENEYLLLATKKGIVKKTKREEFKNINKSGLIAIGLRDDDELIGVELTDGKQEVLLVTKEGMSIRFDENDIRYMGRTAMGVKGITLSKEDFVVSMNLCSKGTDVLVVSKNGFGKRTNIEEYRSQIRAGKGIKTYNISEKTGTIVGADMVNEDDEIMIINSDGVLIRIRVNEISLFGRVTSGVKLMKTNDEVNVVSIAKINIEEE
Sequence of Clostridium difficile DNA gyrase (Q18C89 entry or part of it): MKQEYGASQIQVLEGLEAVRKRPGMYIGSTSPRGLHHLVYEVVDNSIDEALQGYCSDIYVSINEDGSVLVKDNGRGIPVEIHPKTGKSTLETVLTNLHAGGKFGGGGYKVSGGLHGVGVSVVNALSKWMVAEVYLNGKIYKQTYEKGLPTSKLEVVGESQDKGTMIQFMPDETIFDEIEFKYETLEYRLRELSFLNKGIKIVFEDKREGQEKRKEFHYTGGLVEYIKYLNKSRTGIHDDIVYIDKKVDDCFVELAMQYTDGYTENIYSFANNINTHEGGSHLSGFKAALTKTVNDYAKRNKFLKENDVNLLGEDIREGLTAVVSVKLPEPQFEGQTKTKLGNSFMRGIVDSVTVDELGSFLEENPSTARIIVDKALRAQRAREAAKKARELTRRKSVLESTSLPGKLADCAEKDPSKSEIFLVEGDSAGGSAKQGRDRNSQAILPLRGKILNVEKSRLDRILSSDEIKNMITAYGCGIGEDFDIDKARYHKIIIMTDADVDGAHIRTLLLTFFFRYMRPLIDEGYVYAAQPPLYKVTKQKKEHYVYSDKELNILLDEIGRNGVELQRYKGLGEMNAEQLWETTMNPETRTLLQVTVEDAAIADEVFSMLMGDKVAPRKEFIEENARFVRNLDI
Experimental: DNA supercoiling assays (30 μL reaction) were performed in a buffer containing 15 mM Tris-HCl pH 7.5, 13% glycerol, 6 mM MgCl2, 0.1 mg/mL BSA, 70 mM KCl, 1 mM dithioerythritol, 400 ng of DNA substrate (relaxed pBR322 DNA) and different concentrations of test compounds and/or standards. The dilutions of test compounds and standards were prepared in 20% dimethylsulfoxide (DMSO) and added 3 μL/reaction. The reaction was started by adding 2 μL amounts of Clostridium difficile DNA gyrase into the reaction mixtures and reactions were allowed to proceed for 60 minutes at 37° C. A reaction was carried out by adding 3 μL of 20% DMSO instead of test compound as full reaction control, and another reaction was carried out by adding sterile water instead of the enzyme as no reaction control.
Reactions were stopped by the addition of 5 μL of 6×loading dye and were analyzed by electrophoresis through 1.0% agarose gels with 1×TAE running buffer. Gels were run at 60 V for 3 hours, stained with EtBr, and visualized by Gel Doc system (BioRad). Intensity of the supercoiled DNA bands was quantified, and the IC50 of Clostridium difficile DNA gyrase was calculated using Graph Pad Prism.

[6] = Solubility in water (JP1 / JP2 fluids); type: physicochemical; conditions: thermodynamic from solid
Experimental: A 10 mmol/L solution of the test compound was prepared in DMSO and dispensed 100 μL of 10 mmol/L DMSO stock solutions into labeled glass tubes in duplicate, one for Japanese Pharmacopeia First Fluid (JP1) and second for Japanese Pharmacopeia Second Fluid (JP2). After evaporation of DMSO from each tube, 500 μL of JP1 and JP2 fluid were added in each tube, respectively. These tubes were sonicated for 1 minute and placed on shaker for 30 minutes with an interval of 30 seconds at every 5 minute. Tubes were placed in dark at room temperature for 1 hour and solution was filtered through membrane filter. The filtrate was diluted 2-fold and 10-fold. The resulting test solutions was analyzed and quantified against the standards using UPLC (standard preparation—10 mmol/L solution in DMSO is serially diluted with 50% aqueous acetonitrile solution to prepare 2 solutions; 100 μmol/L standard solution and 5 μmol/L standard solutions).

[7] = Japanese Pharmacopeia First Fluid (JP1), pH 1.2, simulated gastric fluid, read-out: Solubility JP1
[8] = Japanese Pharmacopeia Second Fluid (JP2), pH 6.8, aqueous buffer, read-out: Solubility JP2

SMILES | MIC (S. aureus ATCC 29213) [µg/mL] | MIC (P. acnes ATCC 6921) [µg/mL] | MIC (P. acnes IHMA 103740) [µg/mL] | MIC (P. acnes IHMA 775486) [µg/mL] | MIC (P. acnes ATCC 6523) [µg/mL] | MIC [1] [µg/mL] | MIC [2] [µg/mL] | MIC (E. faecium ATCC 29212) [µg/mL] | MIC [3] [µg/mL] | survival on day 35 [4] [%] | IC50 [5] [nM] | solubility at 30 min [6, 7] [µg/mL] | solubility at 30 min [6, 8] [µg/mL]
CCc1[nH]c(C(=O)N[C@@H]2CCN(c3nnc(C(C)CO)s3)C[C@@H]2OC)nc1Cl (stereo partly drawn) [Compound No. 6, 4-Chloro-5-ethyl-N-{(3S,4R)-1-[5-(1-hydroxypropan-2-yl)-1,3,4-thiadiazol-2-yl]-3-methoxypiperidin-4-yl}-1H-imidazole-2-carboxamide] | 0.5 (≈ 1.17 µM) | 0.125 (≈ 0.291 µM) | 0.25 (≈ 0.583 µM) | 0.25 (≈ 0.583 µM) | 0.125 (≈ 0.291 µM) | 0.125 (≈ 0.291 µM) |  |  |  |  |  |  | 
CCO[C@H]1CN(c2nnc(C(C)O)s2)CC[C@H]1NC(=O)c1nc(Cl)c(CC)[nH]1 (stereo partly drawn) [Compound No. 1, 4-Chloro-N-{(3S,4R)-3-ethoxy-1-[5-(1-hydroxyethyl)-1,3,4-thiadiazol-2-yl]piperidin-4-yl}-5-ethyl-1H-imidazole-2-carboxamide] | 0.5 (≈ 1.17 µM) |  |  |  |  | 0.03 (≈ 0.0699 µM) | 0.25 (≈ 0.583 µM) | 0.25 (≈ 0.583 µM) | 2 (≈ 4.66 µM) | 100 | 8.63 |  | 
CCc1[nH]c(C(=O)N[C@@H]2CCN(c3nnc(C(O)CO)s3)C[C@@H]2OC)nc1Cl (stereo in doubt) [Compound No. 9, 4-Chloro-N-[(3S,4R)-1-{5-[(1R)-1,2-dihydroxyethyl]-1,3,4-thiadiazol-2-yl}-3-methoxypiperidin-4-yl]-5-ethyl-1H-imidazole-2-carboxamide] | 4 (≈ 9.28 µM) | 0.125 (≈ 0.29 µM) | 0.125 (≈ 0.29 µM) | 0.125 (≈ 0.29 µM) | 0.125 (≈ 0.29 µM) | 0.125 (≈ 0.29 µM) |  |  |  |  |  | 862 (≈ 2000 µM) | 220 (≈ 511 µM)
CCc1[nH]c(C(=O)N[C@@H]2CCN(c3nnc(C(O)CO)s3)C[C@@H]2OC)nc1Cl (stereo in doubt) [Compound No. 8, 4-Chloro-N-[(3S,4R)-1-{5-[(1S)-1,2-dihydroxyethyl]-1,3,4-thiadiazol-2-yl}-3-methoxypiperidin-4-yl]-5-ethyl-1H-imidazole-2-carboxamide] | 4 (≈ 9.28 µM) | 0.25 (≈ 0.58 µM) | 0.25 (≈ 0.58 µM) | 0.25 (≈ 0.58 µM) | 0.25 (≈ 0.58 µM) | 0.125 (≈ 0.29 µM) |  |  |  |  |  | 728 (≈ 1690 µM) | 125 (≈ 290 µM)
CCc1[nH]c(C(=O)N[C@@H]2CCN(c3nnc(C(C)(O)CO)s3)C[C@@H]2OC)nc1Cl (stereo in doubt) [Compound No. 11, 4-Chloro-N-[(3S,4R)-1-{5-[(2S)-1,2-dihydroxypropan-2-yl]-1,3,4-thiadiazol-2-yl}-3-methoxypiperidin-4-yl]-5-ethyl-1H-imidazole-2-carboxamide] | 1 (≈ 2.25 µM) |  |  |  |  | 0.06 (≈ 0.135 µM) |  |  |  | 100 | 27 | 884 (≈ 1990 µM) | 264 (≈ 593 µM)
CCO[C@H]1CN(c2nnc(C(C)(C)O)s2)CC[C@H]1NC(=O)c1nc(Cl)c(CC)[nH]1 [Compound No. 7, 4-Chloro-N-{(3S,4R)-3-ethoxy-1-[5-(2-hydroxypropan-2-yl)-1,3,4-thiadiazol-2-yl]piperidin-4-yl}-5-ethyl-1H-imidazole-2-carboxamide] | 0.5 (≈ 1.13 µM) |  |  |  |  | 0.125 (≈ 0.282 µM) |  |  |  |  |  |  | 611 (≈ 1380 µM)
